Measured values from patent publication US11802107B2, “Compounds and methods of use” (Signum Biosciences, Inc., priority 2017, dated 2023).

What was measured:
[1] = system: P. acnes (ATCC 6919) biofilms; assay: P. acnes biofilm eradication (MBEC), crystal violet; format: cell-based, Propionibacterium acnes; conditions: 24 hours, ≥80% eradication vs vehicle
Description: P. acnes (ATCC® 6919™) was cultured as described above. Bacteria biofilms were established by seeding P. acnes cultures in 96-well plates and incubating for 24 hours without agitation. Later, biofilms were incubated with test materials for 24 hours. Remaining biofilms were washed and stained with crystal violet. […] The absorbance was measured at 595 nm in a microplate reader. […] Results from disk diffusion susceptibility testing (Kirby-Bauer Method) after 72 hours incubation were also obtained.

DEFB103 (hBD3) = assay: NHEK antimicrobial peptide gene expression, hBD3; format: cell-based, human; conditions: 10 μM, 24 hours, qPCR, normalized to GAPDH
Description: Normal human epidermal keratinocytes (NHEKs) from neonatal donors were obtained from Thermo-Fisher (Cat No. C-001-5C). Cells were cultured in 6-well plates for 24 hours before treatments with EpiLife media (Cat No. MEPI500CA) supplemented with keratinocytes growth supplement (Cat No. 50015). On Day 2, media was removed and incubated with test materials (10 μM) for 24 hours at 37° C. and 5% CO2. On Day 3, total RNA was extracted from cells using the RNAqueous® kit (Ambion®; Cat No. 1912) and cDNA was obtained using the High Capacity RNA-to-cDNA kit (Applied Biosystems®; Cat No. 4387406). Quantitative PCR (qPCR) was performed using the TaqMan® Fast Advanced Master Mix (Applied Biosystems®; Cat No. 4444556) and specific TaqMan®-probes human gene primers DEFB4B (hBD2), DEFB103 (hBD3), HCAP18 and GAPDH to calculate the relative gene fold expression change per treatment. Gene expression analysis was performed using the comparative Ct method (also known as the 2-[delta][delta]Ct) approach by comparing the Ct values of the treated samples with the untreated samples and normalized to GAPDH gene expression as endogenous housekeeping gene. Results were represented as fold-expression/untreated cells.

IL1B (IL-1b) = assay: P. acnes-induced IL-1b gene on human PBMCs (qPCR); format: cell-based; conditions: PBMC, PBMCs + live P. acnes 1:1, test material 30 PM, 24 hours
Description: Cryopreserved human Peripheral Blood Mononuclear cells (PBMCs) from healthy adult donors were obtained from Zen Bio, Inc (Cat No. SER-PBMC-F). Cells were cultured in 12-well plates with lymphocyte media (Cat No. LYMPH-1) and incubated with test materials ([…]) and live P. acnes (ATCC® 6919TM) at 1:1 PBMC: P. acnes bacteria ratio for 24 hours at 37° C. and 5% CO2. After incubation, cell media supernatants were harvested and used to measure pro-inflammatory cytokine levels (IL-8, TNF-α, IL-1b, IL-17) using ELISA kits (BD Biosciences® #557966, #555212, #555244; R&D Systems® #DY317). Total RNA was extracted from cells using the RNAqueous® kit (Ambion®; Cat No. 1912) and cDNA was obtained using the High Capacity RNA-to-cDNA kit (Applied Biosystems®; Cat No. 4387406). Quantitative PCR (qPCR) was performed using the TaqMan® Fast Advanced Master Mix (Applied Biosystems®; Cat No. 4444556) and specific TaqMan®-probes human gene primers CXCL8 (IL-8), IL1B (IL-1b), TNF (TNF-α), IL17A (IL-17A) and GAPDH to calculate the relative gene fold expression change per treatment. Gene expression analysis was performed using the comparative Ct method (also known as the 2-[delta][delta]Ct) approach by comparing the Ct values of P. acnes-only treated cells with the untreated samples and normalized to GAPDH gene expression as endogenous housekeeping gene.

IL-8 [2] = assay: Peptidoglycan (PGN)-induced IL-8 on NHEKs; format: cell-based, human; conditions: for IC50: Homo sapiens, NHEK, PGN 10 μg/mL, 24 hours, ELISA, read-out: PGN-NHEK 1L-8 Protein IC50; for PGN-induced IL-8 production: cultured human keratinocytes exposed to peptidoglycan (PGN)
Description: (§1) Normal human epidermal keratinocytes (NHEKs) from neonatal donors were obtained from Thermo-Fisher (Cat No. C-001-5C). Cells were cultured in 96-well plates for 24 hours with EpiLife media (Cat No. MEPI500CA) supplemented with keratinocytes growth supplement (Cat No. S0015). On Day 2, media was removed and replaced with supplement-depleted medium for 24 hours. On Day 3, media was removed and cells were pre-treated with test materials (≤1 μM) for 2 hours and later co-treated with test materials and PGN (Sigma Aldrich, Cat No. 77140) at 10 μg/mL and incubated for 24 hours at 37° C. and 5% CO2. PGN is a TLR-2 agonist. After incubation, cell media supernatants were harvested and used to measure pro-inflammatory cytokine levels (IL-8) using ELISA kit (BD Biosciences® #555244). Results were represented as percent of inhibition relative to untreated and PGN-only treated cells. IC50 values were determined by non-linear regression analysis using the four-parameter logistic equation.

IL-8 [3] = assay: P. acnes-induced IL-8 on human NHEKs; format: cell-based; conditions: for IC50: Homo sapiens, NHEK, live P. acnes 10^7 CFU, 24 hours, ELISA, read-out: P. acnes-NHEK IL-8 Protein IC50; for P. acnes-induced IL-8 production: cultured human keratinocytes exposed to P. acnes
Description: as §1, with “([…])” for “(≤1 μM)”, “live P. acnes (ATCC® 6919TM)” for “PGN (Sigma Aldrich, Cat No. 77140)”, “10^7 CFU” for “10 μg/mL and incubated”, “CO2.” for “CO2. PGN is a TLR-2 agonist.”, “kits” for “kit”, “P. acnes-only” for “PGN-only”

IL-2 = assay: PHA-induced IL-2 on PBMCs; format: cell-based; conditions: Homo sapiens, PBMC, PHA-L 20 μg/mL, 24 hours, ELISA
Description: (§2) Cryopreserved human Peripheral Blood Mononuclear cells (PBMCs) from healthy adult donors were obtained from Zen Bio, Inc (Cat No. SER-PBMC-F). Cells were cultured in 96-well plates with lymphocyte media (Cat No. LYMPH-1) and were pre-treated with test materials (≤100 μM) for 2 hours and later co-treated with test materials and PHA-L (Sigma Aldrich, Cat No. 11249738001) at 20 μg/mL and incubated for 24 hours at 37° C. and 5% CO2. After incubation, cell media supernatants were harvested and used to measure cytokine levels (IL-2, IFNγ) using ELISA kits (R&D Systems® #DY202, #DY285). Results were represented as percent of inhibition relative to untreated and PHA-only treated cells. IC50 values were determined by non-linear regression analysis using the four-parameter logistic equation.

IFNγ = assay: PHA-induced IFNγ on PBMCs; format: cell-based; conditions: Homo sapiens, PBMC, PHA-L 20 μg/mL, 24 hours, ELISA
Description: as §2

| Structure (SMILES) | MBEC [1] | hBD3 gene expression (DEFB103 (hBD3)) | inhibition at 30 pM (IL1B (IL-1b)) | IC50 (IL-8 [2]) | PGN-induced IL-8 production (IL-8 [2]) | IC50 (IL-8 [3]) | P. acnes-induced IL-8 production (IL-8 [3]) | IC50 (IL-2) | IC50 (IFNγ) |
| --- | --- | --- | --- | --- | --- | --- | --- | --- | --- |
| C/C(=C\CSC[C@H](NC(=O)N1CCC[C@H]1C(=O)O)C(=O)O)CCCC(C)CCCC(C)CCCC(C)C (stereo partly shown) [Compound E] | 12 μg/mL and (21) μM | 2.9 Fold-expression/untreated cells | 20% | 0.25 µM | inhibit IL-8 production | 0.003 µM | inhibit IL-8 production | 4.1 µM | 1.4 µM |
| C/C(=C\CSCC(NC(=O)NCC(=O)O)C(=O)O)CCCC(C)CCCC(C)CCCC(C)C (stereo not shown) [A] | – | – | – | – | – | 0.12 µM | – | – | – |
| C/C(=C\CSC[C@H](NC(=O)COCC(=O)O)C(=O)O)CCCC(C)CCCC(C)CCCC(C)C (stereo partly shown) [Compound T] | – | – | 27% | – | – | – | – | 0.1 µM | > 10 µM |
| N#Cc1ccc(Oc2ccc3c(c2)COB3O)cc1 [AN2728, reference compound] | – | – | – | – | – | – | – | 0.04 µM | 0.3 µM |
| C/C(=C\CSC[C@H](NC(=O)N(C)CC(=O)O)C(=O)O)CCCC(C)CCCC(C)CCCC(C)C (stereo partly drawn) [Compound C, (2R)-2-{[(carboxymethyl)(methyl)carbamoyl]amino}-3-{[(2E)-3,7,11,15-tetramethylhexadec-2-en-1-yl]sulfanyl}propanoic acid] | 9 µg/mL | 9.5 Fold-expression/untreated cells | 0% | 0.25 µM | – | 0.04 µM | – | 0.9 µM | > 10 µM |
| C/C(=C\CSCC(NC(=O)N(CC(=O)O)CC(=O)O)C(=O)O)CCCC(C)CCCC(C)CCCC(C)C (stereo not shown) [Compound G] | 7 μg/mL and (11) μM | 4.7 Fold-expression/untreated cells | 10% | 0.05 µM | inhibit IL-8 production | 0.068 µM | inhibit IL-8 production | 3.3 µM | > 10 µM |
